These results are taken from patent EP3394070B1, “CRYSTALLINE FORMS OF QUINOLONE ANALOGS AND THEIR SALTS” (Senhwa Biosciences, Inc., priority 2015, dated 2017).

Structures can show the parent of a compound that is named as a salt. A value given as a limit tells only on which side of the number the result lay.

For data set [1] the following is noted: water, 72 h.
The nature of data set [2]: Stability (HPLC purity) of acid salts in water, stirred at 42 °C for 3 days. It is filed as physicochemical. The settings on record: for Purity % a/a after 3 days (HPLC): in water, stirred at 42 °C for 3 days. How it is done:
(§1) Crystalline forms (i.e., salts and free base) of the present invention were analyzed by total area normalization (TAN).
The mixture was stirred at 42 °C for 3 days and each solution was analyzed by HPLC for concentration and purity. Table 11 Solubility and Purity of Acid Addition Salts

A short description of data set [3]: Solid-form stability of acid salts stored at elevated temperature (HPLC purity). Format: physicochemical. The settings on record: for Purity % a/a after 3 days at 80 °C (HPLC): solid form stored at 80 °C. The method, then:
as §1
Stability of the acid salts were also tested by storing the salts (solid forms) at an elevated temperature of 45 and 80 °C. Table 12 Stability of Acid Addition Salts

A further data set is described as follows: physchem. The settings on record: 42 °C, water, thermodynamic from solid.

Usually solubility stands for the dissolved amount per volume that the medium holds. Read a low solubility as little dissolved substance.

For the compound `Cc1cnc(CNC(=O)c2c(=O)c3ccc(N4CCCN(C)CC4)nc3n3c2sc2ccccc23)cn1` [HCl], in data set [1], the “Aqueous Solubility (Calculated)” value was above 100 mg/mL. Further, the “Starting Purity % a/a (HPLC)” value in data set [2] (before the 3 day test (time zero)) turned out to be 98.78 % a/a. Moreover, the “Purity % a/a after 3 days (HPLC)” value in data set [2] is given as 88.62 % a/a. The “Purity % a/a after 3 days at 45 °C (HPLC)” value in data set [3] (solid form stored at 45 °C) worked out at 98.48 % a/a. In data set [3], the “Purity % a/a after 3 days at 80 °C (HPLC)” value is 98.71 % a/a.

In “physchem”, `Cc1cnc(CNC(=O)c2c(=O)c3ccc(N4CCCN(C)CC4)nc3n3c2sc2ccccc23)cn1` [Free Base, 2-(4-Methyl-[1,4]diazepan-1-yl)-5-oxo-5H-7-thia-1,11b-diaza-benzo[c]fluorene-6-carboxylic acid (5-methyl-pyrazin-2-ylmethyl)-amide] registered a solubility at 3 days below 100 mg/mL. In addition, in data set [2], the “Purity % a/a after 3 days (HPLC)” value is 99.58 % a/a. Further, in data set [3], the “Purity % a/a after 3 days at 80 °C (HPLC)” value is reported as 99.67 % a/a.
